A word on the IC50: it is the point on the concentration scale where inhibition reaches its midpoint. Broadly, the Ki is the dissociation constant of the complex between target and ligand, obtained from inhibition or displacement. High values mean a looser hold on the target, low ones a stronger hold on the target.

These results are taken from patent US20260124170A1, “PHARMACEUTICAL COMPOSITION COMPRISING METABOLITE OF ENAVOGLIFLOZIN, AND USE THEREOF” (DAEWOONG PHARMACEUTICAL CO., LTD., priority 2022, published 2026).

Structures are written as SMILES.

For assay [1], the system named is STZ-induced type 1 diabetic rats. Description: Oral glucose tolerance test in type 1 diabetic rat model. The note with it: STZ rats, 1 mg/kg, glucose 2 g/kg oral. The format is in vivo. As for the experimental part:
(§1) STZ was administered to Sprague Dawley (SD) male 5-week-old rats on day 0 (G2 to G7, excluding G1), and non-fasting blood glucose levels were measured on day 3 to determine whether type 1 diabetes was induced. On day 7, the experimental substances were administered to each group, and blood and urine samples were collected at 6 h, 24 h, 48 h, and 72 h to measure non-fasting blood glucose levels. On day 14 of the experiment, the experimental animals were fasted for 16 h, and on day 15, 2 g/kg of glucose solution was orally administered after the experimental substances were administered. Thereafter, blood glucose levels were measured at 15, 30, 60, 90, and 120 minutes after glucose administration. After blood collection, the serum was separated, and the IL-6 inflammatory response was evaluated using an interleukin-6 (IL-6) enzyme-linked immunosorbent assay (ELISA) kit.

The next assay relates to interleukin-6 (IL-6). As to the kind of experiment: Serum IL-6 ELISA in type 1 diabetic rat model. The format is in vivo. The conditions noted are these: STZ rats, 6, 24, 48, 72 hours after administration. As for the experimental part: as §1
In general terms: In an ELISA, binding on a coated surface is turned into a signal by an enzyme label.

Assay [2] concerns the target T1, SGLT2 (Homo sapiens, UniProt P31639).
T1 construct: expressed in transfected cells
T1 sequence (P31639 1-672): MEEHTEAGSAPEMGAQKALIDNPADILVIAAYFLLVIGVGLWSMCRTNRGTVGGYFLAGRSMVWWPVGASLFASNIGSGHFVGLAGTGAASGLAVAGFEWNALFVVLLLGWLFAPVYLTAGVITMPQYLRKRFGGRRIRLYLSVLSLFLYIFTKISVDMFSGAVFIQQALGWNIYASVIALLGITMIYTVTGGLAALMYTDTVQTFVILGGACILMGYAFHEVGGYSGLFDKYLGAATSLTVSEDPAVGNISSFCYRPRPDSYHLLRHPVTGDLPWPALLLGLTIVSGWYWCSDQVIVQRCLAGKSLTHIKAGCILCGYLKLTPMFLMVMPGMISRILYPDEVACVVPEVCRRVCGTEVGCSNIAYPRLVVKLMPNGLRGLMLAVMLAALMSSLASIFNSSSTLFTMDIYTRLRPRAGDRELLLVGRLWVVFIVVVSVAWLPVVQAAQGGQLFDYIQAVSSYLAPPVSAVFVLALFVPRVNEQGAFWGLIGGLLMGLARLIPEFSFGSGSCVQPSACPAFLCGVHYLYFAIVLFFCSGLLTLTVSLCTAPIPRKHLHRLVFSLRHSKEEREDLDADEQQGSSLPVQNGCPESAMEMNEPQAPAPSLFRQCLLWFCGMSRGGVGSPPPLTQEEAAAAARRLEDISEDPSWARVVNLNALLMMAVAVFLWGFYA
Description: Inhibition of [14C]AMG uptake in SGLT2-overexpressing CHO cells. Format: cell-based. The conditions noted are these: CHO-SGLT2 cells, 10 μM [14C]AMG, 2 h, 37° C. As to the method:
The evaluation was performed in the same manner as the evaluation of SGLT1 inhibition, except that an SGLT2-overexpressing cell line (CHO-SGLT2 stable cells) was used, and the inhibitory evaluation substances described below were used.

Assay [3] deals with T2, SGLT1 (Homo sapiens, UniProt P13866).
T2 construct: expressed in transfected cells
T2 sequence (P13866 1-664): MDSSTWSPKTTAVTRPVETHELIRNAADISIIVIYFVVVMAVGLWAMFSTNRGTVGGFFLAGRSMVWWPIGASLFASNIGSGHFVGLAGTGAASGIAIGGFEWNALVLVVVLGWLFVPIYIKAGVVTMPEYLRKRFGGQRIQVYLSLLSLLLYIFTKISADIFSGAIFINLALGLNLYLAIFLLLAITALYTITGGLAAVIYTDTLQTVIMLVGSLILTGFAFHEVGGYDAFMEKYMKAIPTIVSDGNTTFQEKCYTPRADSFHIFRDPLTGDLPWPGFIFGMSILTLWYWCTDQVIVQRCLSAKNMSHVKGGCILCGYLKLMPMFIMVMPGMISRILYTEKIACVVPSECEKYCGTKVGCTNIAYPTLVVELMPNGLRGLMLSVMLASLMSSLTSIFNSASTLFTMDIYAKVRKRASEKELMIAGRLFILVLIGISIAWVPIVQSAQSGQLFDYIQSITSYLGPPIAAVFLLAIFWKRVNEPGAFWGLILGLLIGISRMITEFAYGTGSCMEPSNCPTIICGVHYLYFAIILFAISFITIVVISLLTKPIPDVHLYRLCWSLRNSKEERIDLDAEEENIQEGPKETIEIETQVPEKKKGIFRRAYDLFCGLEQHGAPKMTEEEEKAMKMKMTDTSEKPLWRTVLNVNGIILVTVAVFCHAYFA
Description: Change in SGLT1 inhibition according to drug pretreatment time (CHO-SGLT1). Format: cell-based. The note with it: pretreatment 0, 1, 2 h; one-way ANOVA. An excerpt:
(§2) All data values are expressed as the mean±SD of […].

In assay [4] the target is T2, SGLT1. Description: SGLT1 inhibition with varied substrate AMG concentration (Dixon / L-B plot). The note with it: CHO-SGLT1, varied AMG concentration. Format: cell-based.
Description: (§3) From these, the inhibition mechanism was confirmed, and the inhibition constant was calculated.
The target in assay [5] is T1, SGLT2. Description: Change in SGLT2 inhibition according to drug pretreatment time (CHO-SGLT2). Format: cell-based. The conditions noted are these: for IC50: CHO-SGLT2.
Excerpt: as §2

In assay [6] the target is T1, SGLT2. Description: SGLT2 inhibition with varied substrate AMG concentration (Dixon / L-B plot). Format: cell-based.
Description: as §3

In the case of `CCOc1ccc(Cc2cc([C@@H]3O[C@H](SC)[C@@H](O)[C@H](O)[C@H]3O)ccc2Cl)cc1` [Sotagliflozin], the “Blood glucose level in OGTT” value in assay [1] is on record as “lowering of the blood glucose level was observed”. In addition, the “Change in IL-6 level” value in the assay on interleukin-6 (IL-6) is given as “slight decrease”.

As to `OC[C@H]1O[C@@H](c2ccc(Cl)c(Cc3ccc(O[C@H]4CCOC4)cc3)c2)[C@H](O)[C@@H](O)[C@@H]1O` [Empagliflozin], the IC50 against SGLT2 [2] came to 6.65 ± 2.92 nM; at SGLT2 [5] (IC50 according to pretreatment time (nM), SGLT2, 1 h, 1 h pretreatment in sodium-free buffer), 6.67 ± 1.29 nM; on SGLT2 [5] (IC50 according to pretreatment time (nM), SGLT2, 2 h, 2 h pretreatment in sodium-free buffer), 7.35 ± 0.82 nM; on SGLT2 [5] (no pretreatment, read-out: IC50 according to pretreatment time (nM), SGLT2, 0 h), 7.2 ± 2.33 nM. Besides, at SGLT1 [3], the “Change in SGLT1 inhibition as exposure time increased” value was “did not show any significant change or increase in inhibition”. The “Inhibition mechanism, SGLT1” value at SGLT1 [4] is recorded as “Competitive inhibition”. The “Change in SGLT2 inhibition as exposure time increased” value on SGLT2 [5] (pretreatment 0, 1, 2 h, one-way ANOVA) is “did not increase or significantly change”. For the same compound, the “Inhibition mechanism, SGLT2” value on SGLT2 [6] (CHO-SGLT2, varied AMG concentration) was “Competitive inhibition”. On SGLT2 [6] (from slope of L-B plot, CHO-SGLT2), this compound showed an inhibition constant Ki of 5.15 nM.
